According to PMC9097471, “Development of Selective Phosphatidylinositol 5-Phosphate 4-Kinase γ Inhibitors with a Non-ATP-competitive, Allosteric Binding Mode” (Journal of Medicinal Chemistry, 2022):

Tests used:
Settings in all cases: read-out: % activity remaining
[1] = biological target: PINK (Tribolium castaneum, UniProt D6WMX4); assay: biochemical
[2] = biological target: MKK2 (Homo sapiens, UniProt P36507); assay: Kinase panel, radiometric 33P filter binding
[3] = biological target: ERK5 (Homo sapiens, UniProt Q13164); assay: Kinase panel, radiometric 33P filter binding
Excerpt: (§1) filter binding assay using 33P-g-ATPat the MRC PPU International Centre for Kinase Profiling, University of

[4] = biological target: PDK1 (Homo sapiens, UniProt O15530); assay: Kinase panel, radiometric 33P filter binding
Excerpt: as §1

[5] = biological target: PKBb (Homo sapiens, UniProt P31751); assay: Kinase panel, radiometric 33P filter binding
Excerpt: as §1

[6] = biological target: PKCa (Homo sapiens, UniProt P17252); assay: Kinase panel, radiometric 33P filter binding
Excerpt: as §1

[7] = biological target: PKCγ (Homo sapiens, UniProt P05129); assay: Kinase panel, radiometric 33P filter binding
Excerpt: as §1

[8] = biological target: PKCz (Homo sapiens, UniProt Q05513); assay: Kinase panel, radiometric 33P filter binding
Excerpt: as §1

[9] = biological target: MNK1 (Homo sapiens, UniProt Q9BUB5); assay: Kinase panel, radiometric 33P filter binding
[10] = biological target: PRAK (Homo sapiens, UniProt Q8IW41); assay: Kinase panel, radiometric 33P filter binding
Excerpt: as §1

[11] = biological target: CAMKKb (Homo sapiens, UniProt Q96RR4); assay: Kinase panel, radiometric 33P filter binding
Excerpt: as §1

[12] = biological target: CAMK1 (Homo sapiens, UniProt Q14012); assay: Kinase panel, radiometric 33P filter binding
Excerpt: as §1

[13] = biological target: DAPK1 (Homo sapiens, UniProt P53355); assay: Kinase panel, radiometric 33P filter binding
Excerpt: as §1

[14] = biological target: MARK1 (Homo sapiens, UniProt Q9P0L2); assay: Kinase panel, radiometric 33P filter binding
Excerpt: as §1

[15] = biological target: MARK3 (Homo sapiens, UniProt P27448); assay: Kinase panel, radiometric 33P filter binding
Excerpt: as §1

[16] = biological target: MELK (Homo sapiens, UniProt Q14680); assay: Kinase panel, radiometric 33P filter binding
Excerpt: as §1
Kinase % activity remaining s.d.

[17] = biological target: TSSK1 (Homo sapiens, UniProt Q9BXA7); assay: Kinase panel, radiometric 33P filter binding
Excerpt: as §1

[18] = biological target: CK1γ2 (Homo sapiens, UniProt P78368); assay: Kinase panel, radiometric 33P filter binding
Excerpt: as §1

[19] = biological target: CK1δ (Homo sapiens, UniProt P48730); assay: Kinase panel, radiometric 33P filter binding
Excerpt: as §1

[20] = biological target: TTBK2 (Homo sapiens, UniProt Q6IQ55); assay: Kinase panel, radiometric 33P filter binding
Excerpt: as §1

[21] = biological target: DYRK3 (Homo sapiens, UniProt O43781); assay: Kinase panel, radiometric 33P filter binding
Excerpt: as §1

[22] = biological target: NEK6 (Homo sapiens, UniProt Q9HC98); assay: Kinase panel, radiometric 33P filter binding
Excerpt: as §1
Kinase % activity remaining s.d.

[23] = biological target: IKKb (Homo sapiens, UniProt O14920); assay: Kinase panel, radiometric 33P filter binding
Excerpt: as §1
Kinase % activity remaining s.d.

[24] = biological target: EIF2AK3 (Homo sapiens, UniProt Q9NZJ5); assay: Kinase panel, radiometric 33P filter binding
Excerpt: as §1

[25] = biological target: HIPK2 (Homo sapiens, UniProt Q9H2X6); assay: Kinase panel, radiometric 33P filter binding
Excerpt: as §1

[26] = biological target: PAK4 (Homo sapiens, UniProt O96013); assay: Kinase panel, radiometric 33P filter binding
Excerpt: as §1

[27] = biological target: PAK5 (Homo sapiens, UniProt Q9P286); assay: Kinase panel, radiometric 33P filter binding
[28] = biological target: PAK6 (Homo sapiens, UniProt Q9NQU5); assay: Kinase panel, radiometric 33P filter binding
[29] = biological target: MST2 (Homo sapiens, UniProt Q13188); assay: Kinase panel, radiometric 33P filter binding
[30] = biological target: MAP4K5 (Homo sapiens, UniProt Q9Y4K4); assay: Kinase panel, radiometric 33P filter binding
Excerpt: as §1

[31] = biological target: MINK1 (Homo sapiens, UniProt Q8N4C8); assay: Kinase panel, radiometric 33P filter binding
Excerpt: as §1

[32] = biological target: TAO1 (Homo sapiens, UniProt Q7L7X3); assay: Kinase panel, radiometric 33P filter binding
Excerpt: as §1

[33] = biological target: TAK1 (Homo sapiens, UniProt O43318); assay: Kinase panel, radiometric 33P filter binding
[34] = biological target: OSR1 (Homo sapiens, UniProt O95747); assay: Kinase panel, radiometric 33P filter binding
[35] = biological target: EPH-A4 (Homo sapiens, UniProt P54764); assay: Kinase panel, radiometric 33P filter binding
Excerpt: as §1

[36] = biological target: EPH-B3 (Homo sapiens, UniProt P54753); assay: Kinase panel, radiometric 33P filter binding
Excerpt: as §1

[37] = biological target: IGF-1R (Homo sapiens, UniProt P08069); assay: Kinase panel, radiometric 33P filter binding
Excerpt: as §1

[38] = biological target: DDR2 (Homo sapiens, UniProt Q16832); assay: Kinase panel, radiometric 33P filter binding
Excerpt: as §1

HIPK2, sequence (Q9H2X6 whole entry): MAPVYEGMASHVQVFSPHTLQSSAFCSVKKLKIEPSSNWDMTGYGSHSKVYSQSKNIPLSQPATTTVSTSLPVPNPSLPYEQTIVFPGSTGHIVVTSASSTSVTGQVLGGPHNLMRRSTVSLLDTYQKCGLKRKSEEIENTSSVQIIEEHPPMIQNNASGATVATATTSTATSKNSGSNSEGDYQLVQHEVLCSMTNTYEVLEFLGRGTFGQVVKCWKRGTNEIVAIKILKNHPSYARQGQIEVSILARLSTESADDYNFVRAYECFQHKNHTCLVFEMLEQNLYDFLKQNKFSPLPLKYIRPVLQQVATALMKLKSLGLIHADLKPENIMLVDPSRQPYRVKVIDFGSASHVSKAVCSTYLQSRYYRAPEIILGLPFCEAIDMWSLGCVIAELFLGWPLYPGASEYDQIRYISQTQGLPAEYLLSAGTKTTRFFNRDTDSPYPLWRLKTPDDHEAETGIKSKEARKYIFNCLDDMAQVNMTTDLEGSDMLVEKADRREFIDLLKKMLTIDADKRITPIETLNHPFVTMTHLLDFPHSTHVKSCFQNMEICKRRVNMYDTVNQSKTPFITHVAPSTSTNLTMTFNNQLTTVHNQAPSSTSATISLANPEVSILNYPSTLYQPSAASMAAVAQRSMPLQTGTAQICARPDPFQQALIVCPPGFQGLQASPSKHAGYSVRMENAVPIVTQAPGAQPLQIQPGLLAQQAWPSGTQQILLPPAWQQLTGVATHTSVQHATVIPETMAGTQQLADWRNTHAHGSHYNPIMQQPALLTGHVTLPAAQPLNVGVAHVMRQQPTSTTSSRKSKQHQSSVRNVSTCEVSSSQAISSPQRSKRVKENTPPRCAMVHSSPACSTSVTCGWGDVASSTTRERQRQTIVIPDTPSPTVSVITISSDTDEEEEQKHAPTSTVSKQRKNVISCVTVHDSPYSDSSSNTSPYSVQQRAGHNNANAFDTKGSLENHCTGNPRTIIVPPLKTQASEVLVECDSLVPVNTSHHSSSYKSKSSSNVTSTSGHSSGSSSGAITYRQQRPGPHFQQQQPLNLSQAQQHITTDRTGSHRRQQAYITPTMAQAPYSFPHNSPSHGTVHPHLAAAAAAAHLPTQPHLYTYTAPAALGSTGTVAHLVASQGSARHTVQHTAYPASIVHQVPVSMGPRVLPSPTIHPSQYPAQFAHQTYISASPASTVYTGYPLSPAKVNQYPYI
TSSK1, sequence (Q9BXA7 whole entry): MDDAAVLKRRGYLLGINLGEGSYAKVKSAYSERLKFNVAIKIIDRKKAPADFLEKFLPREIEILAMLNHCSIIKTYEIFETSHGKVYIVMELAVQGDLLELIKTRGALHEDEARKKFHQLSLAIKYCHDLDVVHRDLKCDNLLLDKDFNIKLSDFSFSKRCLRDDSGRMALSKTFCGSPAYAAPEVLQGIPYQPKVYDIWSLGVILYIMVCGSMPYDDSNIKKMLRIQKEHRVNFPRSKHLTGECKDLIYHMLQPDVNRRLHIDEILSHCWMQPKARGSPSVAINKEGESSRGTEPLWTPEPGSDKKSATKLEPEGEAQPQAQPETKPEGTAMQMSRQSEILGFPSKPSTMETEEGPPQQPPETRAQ
EIF2AK3, sequence (Q9NZJ5 30-1116): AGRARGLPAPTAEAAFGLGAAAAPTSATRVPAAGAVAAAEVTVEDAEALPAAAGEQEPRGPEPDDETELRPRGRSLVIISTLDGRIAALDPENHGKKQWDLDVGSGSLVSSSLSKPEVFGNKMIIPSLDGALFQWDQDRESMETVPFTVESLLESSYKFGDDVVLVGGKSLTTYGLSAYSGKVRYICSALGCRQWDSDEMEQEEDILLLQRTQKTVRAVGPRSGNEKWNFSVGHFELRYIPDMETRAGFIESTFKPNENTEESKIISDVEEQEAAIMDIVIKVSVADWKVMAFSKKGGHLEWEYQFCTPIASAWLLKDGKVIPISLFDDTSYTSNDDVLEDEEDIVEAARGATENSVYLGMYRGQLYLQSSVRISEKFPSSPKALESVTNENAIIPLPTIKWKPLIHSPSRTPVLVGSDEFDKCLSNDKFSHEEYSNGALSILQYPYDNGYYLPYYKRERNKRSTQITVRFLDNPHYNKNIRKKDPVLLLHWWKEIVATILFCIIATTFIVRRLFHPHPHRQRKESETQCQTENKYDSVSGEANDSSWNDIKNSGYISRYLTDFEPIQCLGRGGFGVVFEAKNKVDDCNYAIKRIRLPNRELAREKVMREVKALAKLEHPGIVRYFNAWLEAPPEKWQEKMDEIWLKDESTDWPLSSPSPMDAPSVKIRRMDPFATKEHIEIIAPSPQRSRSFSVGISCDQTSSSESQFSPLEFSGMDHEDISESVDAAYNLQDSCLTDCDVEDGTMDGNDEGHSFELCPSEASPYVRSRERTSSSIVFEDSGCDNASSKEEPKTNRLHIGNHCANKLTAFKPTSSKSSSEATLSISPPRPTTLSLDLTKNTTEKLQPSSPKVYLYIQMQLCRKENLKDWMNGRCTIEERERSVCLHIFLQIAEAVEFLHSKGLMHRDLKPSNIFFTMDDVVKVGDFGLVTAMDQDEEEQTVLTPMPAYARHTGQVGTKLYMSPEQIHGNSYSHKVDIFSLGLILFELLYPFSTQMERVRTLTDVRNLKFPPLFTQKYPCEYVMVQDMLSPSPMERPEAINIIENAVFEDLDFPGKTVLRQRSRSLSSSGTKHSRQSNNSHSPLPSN
PAK4, sequence (O96013 whole entry): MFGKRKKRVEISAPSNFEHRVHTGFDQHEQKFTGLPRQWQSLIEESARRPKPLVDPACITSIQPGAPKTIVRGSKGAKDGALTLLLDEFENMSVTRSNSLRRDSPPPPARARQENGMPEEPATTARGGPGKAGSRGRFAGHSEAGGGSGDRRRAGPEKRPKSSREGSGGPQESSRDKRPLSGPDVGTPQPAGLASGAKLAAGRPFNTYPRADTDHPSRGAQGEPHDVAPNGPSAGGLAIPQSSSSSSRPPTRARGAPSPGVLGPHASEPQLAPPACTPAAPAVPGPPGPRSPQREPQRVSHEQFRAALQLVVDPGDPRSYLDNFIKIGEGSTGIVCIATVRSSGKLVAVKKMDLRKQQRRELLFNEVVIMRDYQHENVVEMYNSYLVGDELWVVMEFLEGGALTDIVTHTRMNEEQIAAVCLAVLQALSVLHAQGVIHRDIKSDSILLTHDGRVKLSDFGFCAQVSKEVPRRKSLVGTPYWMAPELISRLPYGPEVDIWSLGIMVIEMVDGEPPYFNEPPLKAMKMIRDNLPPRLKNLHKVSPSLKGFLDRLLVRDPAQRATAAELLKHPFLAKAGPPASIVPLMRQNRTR
EPH-A4, sequence (P54764 20-986): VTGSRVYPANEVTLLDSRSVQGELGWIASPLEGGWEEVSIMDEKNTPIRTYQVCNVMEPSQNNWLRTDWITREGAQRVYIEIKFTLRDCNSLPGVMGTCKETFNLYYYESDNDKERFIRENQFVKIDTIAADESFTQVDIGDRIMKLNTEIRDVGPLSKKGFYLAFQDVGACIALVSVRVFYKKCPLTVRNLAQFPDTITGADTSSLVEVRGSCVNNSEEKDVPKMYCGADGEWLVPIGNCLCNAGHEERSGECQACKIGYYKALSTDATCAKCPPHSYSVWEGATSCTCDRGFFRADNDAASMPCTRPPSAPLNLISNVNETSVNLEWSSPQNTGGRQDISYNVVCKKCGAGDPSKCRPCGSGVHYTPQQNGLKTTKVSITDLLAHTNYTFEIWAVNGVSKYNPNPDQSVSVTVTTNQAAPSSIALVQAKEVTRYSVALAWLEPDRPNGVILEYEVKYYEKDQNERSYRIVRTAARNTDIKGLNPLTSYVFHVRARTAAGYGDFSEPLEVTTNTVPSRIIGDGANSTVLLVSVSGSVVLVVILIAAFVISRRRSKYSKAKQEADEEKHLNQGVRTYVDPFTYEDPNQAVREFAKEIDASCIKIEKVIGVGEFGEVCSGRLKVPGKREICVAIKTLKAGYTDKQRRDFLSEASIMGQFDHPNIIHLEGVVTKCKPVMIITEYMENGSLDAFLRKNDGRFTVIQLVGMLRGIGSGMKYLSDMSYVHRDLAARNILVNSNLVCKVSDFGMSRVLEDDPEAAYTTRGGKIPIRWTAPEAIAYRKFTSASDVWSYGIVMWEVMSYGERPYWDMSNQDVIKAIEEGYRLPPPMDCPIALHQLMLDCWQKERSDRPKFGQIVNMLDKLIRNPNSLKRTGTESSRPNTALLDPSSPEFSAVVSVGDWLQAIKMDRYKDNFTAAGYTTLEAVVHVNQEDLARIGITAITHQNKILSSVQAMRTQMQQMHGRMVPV
MARK1, sequence (Q9P0L2 whole entry): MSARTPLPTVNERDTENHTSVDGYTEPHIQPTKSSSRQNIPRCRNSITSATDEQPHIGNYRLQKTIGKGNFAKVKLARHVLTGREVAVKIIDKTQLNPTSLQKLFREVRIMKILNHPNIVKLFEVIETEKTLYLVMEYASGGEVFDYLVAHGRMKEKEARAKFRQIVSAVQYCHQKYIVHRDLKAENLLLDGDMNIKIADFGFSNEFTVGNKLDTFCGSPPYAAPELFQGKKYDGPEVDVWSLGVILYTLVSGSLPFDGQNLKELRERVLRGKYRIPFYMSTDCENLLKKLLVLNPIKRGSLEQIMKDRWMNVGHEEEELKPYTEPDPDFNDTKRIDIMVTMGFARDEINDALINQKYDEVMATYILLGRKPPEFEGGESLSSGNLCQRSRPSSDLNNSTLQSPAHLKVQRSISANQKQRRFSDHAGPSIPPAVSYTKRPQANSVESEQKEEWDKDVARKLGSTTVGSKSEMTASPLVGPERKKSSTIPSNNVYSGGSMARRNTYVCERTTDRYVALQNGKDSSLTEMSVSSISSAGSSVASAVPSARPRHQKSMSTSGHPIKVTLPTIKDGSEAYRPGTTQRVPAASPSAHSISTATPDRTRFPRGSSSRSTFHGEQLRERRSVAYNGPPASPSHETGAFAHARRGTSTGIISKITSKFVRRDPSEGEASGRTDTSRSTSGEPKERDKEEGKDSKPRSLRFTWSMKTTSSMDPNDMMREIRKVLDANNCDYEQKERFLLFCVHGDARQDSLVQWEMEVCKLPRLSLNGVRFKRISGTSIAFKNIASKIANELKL

SMILES: CC(C)c1ccccc1-c1nc(NCc2ccccn2)c2c(ccn2C)n1 [Compound 40]
- remaining activity at 10 µM [1]: 125%
- remaining activity at 10 µM [2]: 115%
- remaining activity at 10 µM [3]: 138%
- remaining activity at 10 µM [4]: 103%
- remaining activity at 10 µM [5]: 75%
- remaining activity at 10 µM [6]: 118%
- remaining activity at 10 µM [7]: 77%
- remaining activity at 10 µM [8]: 111%
- remaining activity at 10 µM [9]: 104%
- remaining activity at 10 µM [10]: 98%
- remaining activity at 10 µM [11]: 99%
- remaining activity at 10 µM [12]: 97%
- remaining activity at 10 µM [13]: 105%
- remaining activity at 10 µM [14]: 88%
- remaining activity at 10 µM [15]: 101%
- remaining activity at 10 µM [16]: 95%
- remaining activity at 10 µM [17]: 96%
- remaining activity at 10 µM [18]: 97%
- remaining activity at 10 µM [19]: 100%
- remaining activity at 10 µM [20]: 114%
- remaining activity at 10 µM [21]: 128%
- remaining activity at 10 µM [22]: 120%
- remaining activity at 10 µM [23]: 100%
- remaining activity at 10 µM [24]: 103%
- remaining activity at 10 µM [25]: 114%
- remaining activity at 10 µM [26]: 95%
- remaining activity at 10 µM [27]: 120%
- remaining activity at 10 µM [28]: 95%
- remaining activity at 10 µM [29]: 115%
- remaining activity at 10 µM [30]: 112%
- remaining activity at 10 µM [31]: 95%
- remaining activity at 10 µM [32]: 115%
- remaining activity at 10 µM [33]: 110%
- remaining activity at 10 µM [34]: 120%
- remaining activity at 10 µM [35]: 96%
- remaining activity at 10 µM [36]: 105%
- remaining activity at 10 µM [37]: 107%
- remaining activity at 10 µM [38]: 90%
